Assay [1] has as its system human renal carcinoma cell line 786-0. In words: Anti-proliferative effect on renal cell carcinoma 786-0 cell line (MTT assay). Format: cell-based. The note with it: Homo sapiens, 786-0 cells, incubation 48 to 96 hours, serum free medium or 2% FCS. The procedure: B-1. Determination of Anti-proliferative Effects of Renal Cell Carcinoma 786-0 Cell Line:
A defined number of cells of the human renal carcinoma cell line 786-0 were cultured in a 96 well micro titer plate in rich medium (2500 or 7.000 cells/well) and then incubated over night at 37° C./5% CO2. After 18 hours the seed medium was replaced by a serum free medium or medium with 2% FCS. The treatment began with measuring out the respective test substances in varying concentrations (10^−5 M to 10^−14 M). Incubation times of between 48 hours and 96 hours were chosen. The proliferation was determined by means of the MTT assay (ATCC, Manassas, Va., USA, catalogue no. 30-1010K). After completion of incubation period the MTT reagent was incubated with the cells for 4 hours before lysis occurred over night by measuring out the detergent. The created stain was detected at 570 nm. The proliferation of the cells, which were treated identically to the other cells but without the test substance was defined as the 100% value. The data obtained from this test represent triple determinations and at least two experiments had been carried out independently of each other.

In a further assay the test system is HT-29 wt cell line. In words: Anti-proliferative effect on HT-29 wt cell line (MTT assay). The note with it: Homo sapiens, HT-29 wt cells, incubation 48 to 96 hours, medium with 10% FCS. Format: cell-based, human. On the procedure:
B-2. Determination of Anti-proliferative Effects of HT-29 wt Cell Line:
After 18 hours the seed medium was replaced by a fresh medium with 10% FCS. The treatment started with measuring out the respective test substance. The dose-response curves were determined of the investigative substances with a concentration of 10^−5 M to 10^−14 M (1:10 dilutions). Incubation times of between 48 hours and 96 hours were chosen. The proliferation was detected by means of the MTT assay (ATCC, Manassas, Va., USA, catalogue no. 30-1010K). After completion of selected incubation period the MTT reagent was incubated with the cells for 4 hours before lysis occurred over night by measuring out the detergent. The created stain was detected at 570 nm. The proliferation of the cells, which were treated identically to the other cells but without the test substance, was defined as the 100% value. The data obtained from this test represent triple determinations and at least two experiments had been carried out independently of each other.

pIC50: −log10 of the molar value. Square brackets hold non-standard residues; d marks the D form. Peptide text beside a SMILES is read from it. * marks the point of attachment. NMeVal(N-(CH2)3COOH) = CC(C)[C@@H](C(=O)*)N(C)CCCC(=O)O; Dolaproine = CO[C@@H]([C@@H]1CCCN1)[C@@H](C)C(=O)O; Dil = CC[C@H](C)[C@H](NC)[C@@H](CC(=O)O)OC; X3 = CC(C)[C@@H](C(=O)*)N(C)CCCCCC(=O)O; NMe(benzyl) = CN(Cc1ccccc1)*; X2 = c1ccc2c(CO*)cccc2c1; NHBn = c1ccc(CN*)cc1; OtBu = CC(C)(C)O*

Consider `CC[C@H](C)[C@@H]([C@@H](CC(=O)N1CCC[C@H]1[C@H](OC)[C@@H](C)C(=O)N[C@@H](Cc1ccccc1)C(=O)OCc1cccc2ccccc12)OC)N(C)C(=O)[C@@H](NC(=O)[C@H](C(C)C)N(C)CCCC(=O)O)C(C)C` [Example 1, N-(3-carboxypropyl)-N-methyl-L-valyl-N-[(3R,4S,5S)-3-methoxy-1-{(2S)-2-[(1R,2R)-1-methoxy-2-methyl-3-{[(2S)-1-(1-naphthylmethoxy)-1-oxo-3-phenylpropane-2-yl]amino}-3-oxopropyl]pyrrolidin-1-yl}-5-methyl-1-oxoheptan-4-yl]-N-methyl-L-valinamide] ({NMeVal(N-(CH2)3COOH)}-V[Dil][Dolaproine]F-X2), for which the pIC50 in assay [1] is 8.96; in the assay on HT-29 wt cell line, 10.00. For `CC[C@H](C)[C@@H]([C@@H](CC(=O)N1CCC[C@H]1[C@H](OC)[C@@H](C)C(=O)N[C@H](COCc1ccccc1)Cc1ccccc1)OC)N(C)C(=O)[C@@H](NC(=O)[C@H](C(C)C)N(C)CCCC(=O)O)C(C)C` [Example 4, N-(3-carboxypropyl)-N-methyl-L-valyl-N-[(3R,4S,5S)-1-{(2S)-2-[(1R,2R)-3-{[(2S)-1-(benzyloxy)-3-phenylpropane-2-yl]amino}-1-methoxy-2-methyl-3-oxopropyl]pyrrolidin-1-yl}-3-methoxy-5-methyl-1-oxoheptan-4-yl]-N-methyl-L-valinamide], in that order: 9.10 and 10.00.

Regarding `CC[C@H](C)[C@@H]([C@@H](CC(=O)N1CCC[C@H]1[C@H](OC)[C@@H](C)C(=O)N[C@H](C(=O)OCc1ccccc1)[C@@H](C)c1ccccc1)OC)N(C)C(=O)[C@@H](NC(=O)[C@H](C(C)C)N(C)CCCC(=O)O)C(C)C` [Example 6, N-(3-carboxypropyl)-N-methyl-L-valyl-N-[(3R,4S,5S)-1-{(2S)-2-[(1R,2R)-3-{[(2S,3S)-1-(benzyloxy)-1-oxo-3-phenylbutane-2-yl]amino}-1-methoxy-2-methyl-3-oxopropyl]pyrrolidin-1-yl}-3-methoxy-5-methyl-1-oxoheptan-4-yl]-N-methyl-L-valinamide], the pIC50 is 8.96 in assay [1] and 9.40 in the assay on HT-29 wt cell line. `CC[C@H](C)[C@@H]([C@@H](CC(=O)N1CCC[C@H]1[C@H](OC)[C@@H](C)C(=O)N[C@@H](Cc1ccccc1)C(=O)N(C)Cc1ccccc1)OC)N(C)C(=O)[C@@H](NC(=O)[C@H](C(C)C)N(C)CCCC(=O)O)C(C)C` [Example 9, N-(3-carboxypropyl)-N-methyl-L-valyl-N-[(3R,4S,5S)-1-{(2S)-2-[(1R,2R)-3-({(2S)-1-[benzyl(methyl)amino]-1-oxo-3-phenylpropane-2-yl}amino)-1-methoxy-2-methyl-3-oxopropyl]pyrrolidin-1-yl}-3-methoxy-5-methyl-1-oxoheptan-4-yl]-N-methyl-L-valinamide] ({NMeVal(N-(CH2)3COOH)}-V[Dil][Dolaproine]F-{NMe(benzyl)}): the pIC50 was 7.28 in assay [1] and 8.36 in the assay on HT-29 wt cell line. For `CC[C@H](C)[C@@H]([C@@H](CC(=O)N1CCC[C@H]1[C@H](OC)[C@@H](C)C(=O)N[C@@H](Cc1c[nH]c2ccccc12)C(=O)NCc1ccccc1)OC)N(C)C(=O)[C@@H](NC(=O)[C@H](C(C)C)N(C)CCCC(=O)O)C(C)C` [Example 16, N-(3-carboxypropyl)-N-methyl-L-valyl-N-[(3R,4S,5S)-1-{(2S)-2-[(1R,2R)-3-{[(2S)-1-(benzyl-amino)-3-(1H-indol-3-yl)-1-oxopropane-2-yl]amino}-1-methoxy-2-methyl-3-oxopropyl]pyrrolidin-1-yl}-3-methoxy-5-methyl-1-oxoheptan-4-yl]-N-methyl-L-valinamide] ({NMeVal(N-(CH2)3COOH)}-V[Dil][Dolaproine]W-NHBn), in that order: 7.92 and 10.00. Consider `CC[C@H](C)[C@@H]([C@@H](CC(=O)N1CCC[C@H]1[C@H](OC)[C@@H](C)C(=O)N[C@@H](Cc1ccccc1)C(=O)OC(C)(C)C)OC)N(C)C(=O)[C@@H](NC(=O)[C@H](C(C)C)N(C)CCCC(=O)O)C(C)C` [Example 20, N-(3-carboxypropyl)-N-methyl-L-valyl-N-[(3R,4S,5S)-1-{(2S)-2-[(1R,2R)-3-{[(2S)-1-tert.-butoxy-1-oxo-3-phenylpropane2-yl]amino}-1-methoxy-2-methyl-3-oxopropyl]pyrrolidin-1-yl}-3-methoxy-5-methyl-1-oxoheptan-4-yl]-N-methyl-L-valinamide] ({NMeVal(N-(CH2)3COOH)}-V[Dil][Dolaproine]F-OtBu), for which the pIC50 in assay [1] was 9.52.

On to `CC[C@H](C)[C@@H]([C@@H](CC(=O)N1CCC[C@H]1[C@H](OC)[C@@H](C)C(=O)N[C@H](C(=O)NCc1ccccc1)[C@@H](C)O)OC)N(C)C(=O)[C@@H](NC(=O)[C@H](C(C)C)N(C)CCCC(=O)O)C(C)C` [Example 25, N-(3-carboxypropyl)-N-methyl-L-valyl-N-[(3R,4S,5S)-1-{(2S)-2-[(1R,2R)-3-{[(2S,3R)-1-(benzylamino)-3-hydroxy-1-oxobutane-2-yl]amino}-1-methoxy-2-methyl-3-oxopropyl]pyrrolidin-1-yl}-3-methoxy-5-methyl-1-oxoheptan-4-yl]-N-methyl-L-valinamide] ({NMeVal(N-(CH2)3COOH)}-V[Dil][Dolaproine]T-NHBn), for which the pIC50 in assay [1] is 6.79; in the assay with HT-29 wt cell line, 8.82. The matching figures for `CC[C@H](C)[C@@H]([C@@H](CC(=O)N1CCC[C@H]1[C@H](OC)[C@@H](C)C(=O)N[C@H](COCc1ccc(C(=O)OC)cc1)Cc1ccccc1)OC)N(C)C(=O)[C@@H](NC(=O)[C@H](C(C)C)N(C)CCCC(=O)O)C(C)C` [Example 26, N-(3-carboxypropyl)-N-methyl-L-valyl-N-[(3R,4S,5S)-3-methoxy-1-{(2S)-2-[(1R,2R)-1-methoxy-3-{[(2S)-1-{[4-(methoxycarbonyl)benzyl]oxy}-3-phenylpropane-2-yl]amino}-2-methyl-3-oxopropyl]pyrrolidin-1-yl}-5-methyl-1-oxoheptan-4-yl]-N-methyl-L-valinamide]: 8.00 and 8.82. Compound `CC[C@H](C)[C@@H]([C@@H](CC(=O)N1CCC[C@H]1[C@H](OC)[C@@H](C)C(=O)N[C@@H](Cc1c[nH]c2ccccc12)C(=O)NCc1ccccc1)OC)N(C)C(=O)[C@@H](NC(=O)[C@H](C(C)C)N(C)CCCCCC(=O)O)C(C)C` [Example 28, N-(5-carboxypentyl)-N-methyl-L-valyl-N-[(3R,4S,5S)-1-{(2S)-2-[(1R,2R)-3-{[(2S)-1-(benzylamino)-3-(1H-indol-3-yl)-1-oxopropane-2-yl]amino}-1-methoxy-2-methyl-3-oxopropyl]pyrrolidin-1-yl}-3-methoxy-5-methyl-1-oxoheptan-4-yl]-N-methyl-L-valinamide] (X3-V[Dil][Dolaproine]W-NHBn) had a pIC50 in the assay on HT-29 wt cell line of 8.89.
